# Test results published in patent US20240058298A1, “GENISTEIN FOR USE IN THE TREATMENT OF FOCAL SEGMENTAL GLOMERULOSCLEROSIS (FSGS)” (Delta 4 GmbH, priority 2020, published 2024).
# Test system: adriamycin induced nephropathy (FSGS model)
# Experiment: Adriamycin induced nephropathy mouse model of FSGS, proteinuria (UPCR, UACR) in spot urine
# Type: in vivo, Female Balb/c mice
# Conditions: for urinary protein to creatinine ratio (UPCR): Balb/c mice, adriamycin 10.5 mg/kg i.v., chow + genistein 500 mg/kg (about 80 mg/kg mouse/day) from day 2, weekly spot urine, vs control chow
# Procedure: For biological testing of genistein, the accepted mouse models of FSGS, was chosen, i.e. the adriamycin induced nephropathy. […] All animal experiments and handling were in accordance with the Austrian law for protection of animals and approved by the animal ethics committee of the Austrian ministry for science and research.
# Adriamycin (Doxorubicin; Sigma, D1515-10 mg) was diluted in ddH2O. To induce FSGS, a dose of 10.5 mg/kg mouse was injected i.v. into the tail vein using 27G needles, i.e. a total volume of 200 μl volume per 25 g mouse.
# For tail vein injection, mice were anaesthetized using Ketanest (Pfizer, 25 mg/ml vials) and Rompun (Bayer, 20 mg/ml injection solution). A final mix of 12.5 mg/ml Ketanest and 0.25% Rompun in 0.9% NaCl solution was prepared and 200 μl/25 g mouse were injected. Genistein (Selleckchem, S1342) was used for therapy experiments.
# Female Balb/c mice were obtained from the animal breeding facility of the Medical University (Abteilung kw Labortierkunde, Himberg, Austria). 8-18 weeks old animals with a weight >17g were used for the experiments and adjusted for weight and age. Animals were allowed acclimatization of at least 7 days. Animal were marked by ear or toe clip codes to allow identification. Adriamycin nephropathy in Balb/c mice is the most commonly used animal model for preclinical FSGS studies and shares the central features with human FSGS.
# Standard commercial chow from ssniff (ssniff Spezialdiäten GmbH, Soest, Germany) contained crude protein (19%), crude fat (3.3%), crude fiber (4.9%), crude ash (6.4%), starch (36.5%), sugar (4.7%). Control group animals were fed standard chow, test group animals standard chow+genistein (500 mg/kg) produced by ssniff. All animals were allowed to eat ad libitum assuming a daily average uptake of about 4 grams/mouse (according to animal care guideline of the Johns Hopkins University, Baltimore, MD, USA; http://web.jhu.edu/animalcare/ procedures/mouse.html), i.e. about 80 mg genistein/kg mouse/day (Odle et al. 2017).
# Spot urine was collected every week and Creatinine and protein levels were measured in the Clinical Institute for Laboratory Medicine of the Medical University Vienna.
# Urinary albumin was measured by ELISA. 96-well plates were coated over night at 4° C. with 100 μl antibody solution Anti Mouse Serum Albumin antibody (Abcam ab34807, Lot GR3242102-4; diluted 1:2,000) in coating buffer (3.7g NaHCO3; 0.64 g Na2CO3; 1L distilled water). The remaining procedure was performed at room temperature. Wells were washed 3× with HBSS (Sigma H8264-500ML) +0,05% Tween-20 (Bio-Rad, #1706531) and blocked in ELISA/ELISPOT Diluent (eBioscience, 00-4202-56) and washed again for 3×. Samples and standard curve were both diluted in ELISA/ELISPOT diluent were incubated for 2 h, followed by 3 wash steps with HBSS+0.05% Tween-20, incubated with HRP antibody Anti Mouse Serum Albumin antibody (Abcam ab19195, Lot GR3242102-4; diluted 1:100,000) for 1 h, followed by 5 was steps. Reaction was developed with TMB One Solution (Promega, G7431) and stopped with 2N H2SO4. Standard curves were generated with Mouse Albumin (Merck/Sigma, 126674-25MG). 450nm absorbance was measured on an Epoch Microplate reader (BioTek) using Gen5 1.10 software.
# R version 4.0.2 was used for statistical analysis. Student's t-test was used for comparing UPCR and UACR values between samples from treated and control mice for each individual time point and to assess differences in histological parameters. […]
smiles,measurement,setting,value
"O=c1c(-c2ccc(O)cc2)coc2cc(O)cc(O)c12 [Genistein, 5,7-Dihydroxy-3-(4-hydroxyphenyl)chromen-4-one]",urinary protein to creatinine ratio (UPCR),,marked amelioration
same,urinary protein to creatinine ratio (UPCR),listed as compound of the present invention,significantly lowered
same,Proteinuria,"adriamycin FSGS mice, genistein chow vs control",Significantly Reduces
same,impact of genistein treatment over time on outcome determined based on UPCR levels (repeated measures ANOVA),"adriamycin FSGS mice, genistein chow vs control, all collected urines (FIG. 1)",significant beneficial impact
same,urine albumin/creatinine ratio (UACR),"animal studies, urinary albumin by ELISA, genistein vs control",significantly lowered
